Test results published in PubChem BioAssay (NCI).
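How tested: cells in 96-well plates exposed to compound for 48 hours at five concentrations. GI50 marks 50% less growth. TGI denotes the concentration required for complete inhibition of growth.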

Assays:
Assay in all cases: NCI tumour cell line growth inhibition, 48 h
[1] = tested on: DMS 273 small cell lung
[2] = tested on: HOP-18 NSCLC
[3] = tested on: RXF-631 renal

Row | SMILES | TGI [1] [µM] | TGI [2] [µM] | TGI [3] [µM] | GI50 [1] [µM] | GI50 [2] [µM] | GI50 [3] [µM]
1 | CCOC(=O)c1cc2c3c(c(O)c(OC)c2s1)N(C(=O)c1cc2c4c(c(O)c(OC)c2s1)N(C(C)=O)CC4)CC3 | > 100 | > 100 | > 100 | – | – | –
2 | Cc1c(C(=O)O)oc2ccc([N+](=O)[O-])cc12 | > 100 | > 100 | > 100 | – | – | –
3 | CSC(=S)N/N=C/c1nccc2ccccc12 | > 21.8 | 9.78 | > 82.9 | – | – | –
4 | COc1cc2c(cc1OC)C(C(=O)c1cccc(OC)c1OC)C(=O)N(C)CC2 (stereo not drawn) | > 100 | > 100 | > 100 | – | – | –
5 | CC(C)(Oc1ccc(/C=C/C(=O)c2ccc(Cl)cc2)cc1)C(=O)Nc1c(Cl)cccc1Cl | – | > 100 | 45.3 | – | – | –
6 | C[N+](C)(C)CC1CCCCC1O (stereo not drawn) | > 100 | > 100 | > 100 | – | – | –
7 | N/N=C1\C(=O)N(CCc2ccccc2)C(=O)C1C(=O)NCCc1ccccc1 (stereo not drawn) | > 100 | – | > 100 | – | – | –
8 | Cc1ccccc1C(=O)N1CCN(C(=O)c2ccccc2C)CC1 | > 100 | > 100 | > 100 | – | – | –
9 | Cc1nc(C(N)=S)sc1C(=O)/C=C/c1c(O)ccc2ccccc12 | > 100 | > 100 | > 100 | – | – | –
10 | CCCCN(CC)CC(C(C)=O)c1c(O)c2ccccc2oc1=O (stereo not drawn) | > 100 | > 100 | – | – | – | –
11 | COc1ccc(CN2CCC/C=C/CC(Cl)(Cl)C2=O)cc1 | > 100 | > 100 | – | – | – | –
12 | COC(=O)C1(O)CC(=O)CCC1c1ccc(OC)cc1 (stereo not drawn) | > 100 | > 100 | > 100 | – | – | –
13 | COC(=O)C1(C(=O)OC)CC(=O)c2cc3c(cc2-c2c(cc(OC)c(OC)c2OC)C1)OCO3 | > 211 | > 211 | > 211 | – | – | –
14 | CN(C)C(=S)/N=c1\ssc(=S)n1Cc1ccncc1 | 76.3 | 57.6 | 38.4 | – | – | –
15 | CC(C)(C)C(=O)[CH-]C(=O)C(C)(C)C.CC(C)(C)C(=O)[CH-]C(=O)C(C)(C)C.CN(C)c1ccc([O-])cc1.CN(C)c1ccc([O-])cc1.[Ti+4] | > 100 | > 100 | > 100 | > 100 | > 100 | > 100
16 | C/C(=N/NC(=O)C[N+](C)(C)C)C(CN(C)C)C(=O)Nc1ccccc1 (stereo not drawn) | > 100 | > 100 | – | – | – | –
17 | Cn1c2c(c3ccccc31)CCN(CCN1CCN(c3cccc(Cl)c3)CC1)C2=O | > 100 | > 100 | – | – | – | –
18 | O=c1oc2ccccc2[n+]([O-])c1-c1ccccc1 | > 100 | > 100 | > 100 | – | – | –
19 | CC(=O)OCC1OC(N2C(=O)C(=O)c3ccccc32)C(OC(C)=O)C(OC(C)=O)C1OC(C)=O (stereo not drawn) | > 100 | – | > 100 | – | – | –
20 | COc1ccc(C(=O)NCCN(C)C)c2nc3ccccc3nc12 | > 100 | > 82.6 | > 100 | – | – | –
21 | O=C(/C=C/c1ccccc1)c1ccc(NCc2nc3ccccc3[nH]2)cc1 | 16 | 17.6 | – | – | – | –
22 | C=CC(OCC)(OCC)OCC | 37.9 | > 100 | > 100 | – | – | –
23 | O=[N+]([O-])c1ccc(Sc2c3ccccc3nc3cc(Cl)ccc23)cc1 | > 1 | > 100 | > 100 | – | > 100 | > 100
24 | Nc1ncnc2c1ncn2CC(O)CO (stereo not drawn) | > 100 | > 100 | > 100 | – | – | –
25 | CCCCN(CCCC)C(=O)/C(CC(=O)c1cccc2ccccc12)=N\NC(=O)c1cc2ccccc2cc1O | – | – | 70.5 | – | – | –
26 | CCNC(=O)COc1ccc(Cl)cc1Cl | > 100 | > 100 | > 100 | – | – | –
